For 12 molecules, IC50 results are on record in patent US11661426B2, “Imidazole-containing inhibitors of ALK2 kinase” (BioCryst Pharmaceuticals, Inc., priority 2017, dated 2023).

For the assay, the target named is ALK2 (Homo sapiens (Human), UniProt Q04771). The assay can be described thus: ALK2 inhibition, LanthaScreen Eu Kinase Binding Assay (ThermoFisher Scientific / Life Technologies). As to conditions: read-out: Measured Ki (IC50) Value for Compounds: IC50. On the procedure: Biochemical assays to measure the inhibitory effects of the compounds were performed by ThermoFisher Scientific (Life Technologies). ALK2 inhibition was tested using LanthaScreen™ Eu Kinase Binding Assay screening protocol.

Where only a bound is given, the exact number is not on record here.

Chain of ALK2 (Q04771 21-509): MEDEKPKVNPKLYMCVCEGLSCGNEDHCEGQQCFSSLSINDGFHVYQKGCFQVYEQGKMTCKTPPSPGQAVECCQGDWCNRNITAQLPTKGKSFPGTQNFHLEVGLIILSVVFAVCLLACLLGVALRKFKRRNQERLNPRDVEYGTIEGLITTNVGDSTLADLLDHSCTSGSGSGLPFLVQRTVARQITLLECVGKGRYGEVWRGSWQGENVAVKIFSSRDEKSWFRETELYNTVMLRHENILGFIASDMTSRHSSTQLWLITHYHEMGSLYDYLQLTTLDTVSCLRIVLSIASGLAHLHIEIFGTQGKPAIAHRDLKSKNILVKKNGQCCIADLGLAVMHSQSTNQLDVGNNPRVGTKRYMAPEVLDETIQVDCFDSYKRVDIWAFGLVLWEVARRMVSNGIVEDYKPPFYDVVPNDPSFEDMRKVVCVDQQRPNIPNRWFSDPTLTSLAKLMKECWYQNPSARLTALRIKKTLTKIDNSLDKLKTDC

For `COc1cc(-n2cnc(Nc3nc(N4CCC(F)(F)C4)nc4ccoc34)c2)cc(OC)c1OC` [Compound 260a, 2-(3,3-difluoropyrrolidin-1-yl)-N-(1-(3,4,5-trimethoxyphenyl)-1H-imidazol-4-yl)furo[3,2-d]pyrimidin-4-amine], the 50% inhibitory concentration (IC50) was below 100 nM.

Turning to `COc1cc(-n2cnc(Nc3nc(N4CCC[C@H]4CO)nc4cc(F)ccc34)c2)cc(OC)c1OC` [Compound 269a, (S)-(1-(7-fluoro-4-((1-(3,4,5-trimethoxyphenyl)-1H-imidazol-4-yl)amino)quinazolin-2-yl)pyrrolidin-2-yl)methanol], the IC50 is below 100 nM. For the molecule `Cn1cnc(Nc2nc(N3CCC[C@@H]3CO)nc3ccoc23)c1` [Compound 3a, (R)-(1-(4-((1-methyl-1H-imidazol-4-yl)amino)furo[3,2-d]pyrimidin-2-yl)pyrrolidin-2-yl)methanol], the IC50 is above 1000 nM.

For `COc1cc(-n2cnc(Nc3nc(N4CCCC4)nn4cccc34)c2)cc(OC)c1OC` [Compound 156a, 2-(pyrrolidin-1-yl)-N-(1-(3,4,5-trimethoxyphenyl)-1H-imidazol-4-yl)pyrrolo[2,1-f][1,2,4]triazin-4-amine], the IC50 is below 100 nM. Take `COc1cc(-n2cnc(Nc3nc(N4CCC[C@H]4CO)nn4c(CO)ccc34)c2)cc(OC)c1OC` [Compound 101c, (S)-(1-(7-(hydroxymethyl)-4-((1-(3,4,5-trimethoxyphenyl)-1H-imidazol-4-yl)amino)pyrrolo[2,1-f][1,2,4]triazin-2-yl)pyrrolidin-2-yl)methanol]: the IC50 was below 100 nM. Take `COc1cc(-n2cnc(Nc3nc(N4CCC[C@H]4CO)nc4c3CN(C(=O)OC(C)(C)C)C4)c2)cc(OC)c1OC` [Compound 365a, (S)-tert-butyl 2-(2-(hydroxymethyl)pyrrolidin-1-yl)-4-(1-(3,4,5-trimethoxyphenyl)-1H-imidazol-4-ylamino)-5H-pyrrolo[3,4-d]pyrimidine-6(7H)-carboxylate]: the IC50 is below 100 nM.

On to `COc1cc(-n2cnc(Nc3nc(N4CCC[C@H]4C(N)=O)nc4sc(CN5CCC(O)CC5)cc34)c2)cc(OC)c1OC` [Compound 404b, (S)-1-(6-((4-hydroxypiperidin-1-yl)methyl)-4-((1-(3,4,5-trimethoxyphenyl)-1H-imidazol-4-yl)amino)thieno[2,3-d]pyrimidin-2-yl)pyrrolidine-2-carboxamide], for which the 50% inhibitory concentration (IC50) is below 100 nM. With `CC(=O)c1cc(-n2cnc(Nc3nc(N4CCC[C@H]4CO)nn4cccc34)c2)ccc1O` [Compound 123c, (S)-1-(2-hydroxy-5-(4-((2-(2-(hydroxymethyl)pyrrolidin-1-yl)pyrrolo[2,1-f][1,2,4]triazin-4-yl)amino)-1H-imidazol-1-yl)phenyl)ethanone], the IC50 is below 100 nM. For `COc1cc(-n2cnc(Nc3nc(N4CCC[C@H]4C(N)=O)nc4c3COC4)c2)cc(OC)c1OC` [Compound 311a, (S)-1-(4-((1-(3,4,5-trimethoxyphenyl)-1H-imidazol-4-yl)amino)-5,7-dihydrofuro[3,4-d]pyrimidin-2-yl)pyrrolidine-2-carboxamide] the value was below 100 nM; for `COc1ccc(-n2cnc(Nc3nc(N4CCC[C@H]4CO)c4cccn4n3)c2)cc1C(F)(F)F` [Compound 229d, (S)-(1-(2-((1-(4-methoxy-3-(trifluoromethyl)phenyl)-1H-imidazol-4-yl)amino)pyrrolo[2,1-f][1,2,4]triazin-4-yl)pyrrolidin-2-yl)methanol], 100 to 1000 nM.

On to `O=C(c1cnc(Nc2nc(N3CCC[C@H]3CO)nn3cccc23)s1)N1CCC[C@H]1CO` [Compound 467c, ((S)-2-(hydroxymethyl)pyrrolidin-1-yl)(2-((2-((S)-2-(hydroxymethyl)pyrrolidin-1-yl)pyrrolo[2,1-f][1,2,4]triazin-4-yl)amino)thiazol-5-yl)methanone], for which the IC50 is above 1000 nM. Regarding `COc1cc(-n2cnc(Nc3nc(N4CCC[C@@H]4CO)c4ccccc4n3)c2)cc(OC)c1OC` [Compound 327b, (R)-(1-(2-((1-(3,4,5-trimethoxyphenyl)-1H-imidazol-4-yl)amino)quinazolin-4-yl)pyrrolidin-2-yl)methanol], the IC50 is below 100 nM.
